Measured values reported in the supplement of paper PMC10307832.

Legend:
Assay in all cases: relative viability (nuclei count vs DMSO), 5 days (fraction); higher = more cells survive
Imatinib + Bortezomib = compound: Cc1ccc(NC(=O)c2ccc(CN3CCN(C)CC3)cc2)cc1Nc1nccc(-c2cccnc2)n1 [Imatinib] + CC(C)C[C@H](NC(=O)[C@H](Cc1ccccc1)NC(=O)c1cnccn1)B(O)O [Bortezomib] (partner 0.002 µM)
Method in brief: (§1)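 Relative viability divides the nuclei count in treated wells by that in vehicle wells. Lung cancer cell lines were seeded in 1536-well plates, dosed by pin tool the next day, and fixed and stained after 5 days in one step with final 0.05% Triton X-100, 1% formaldehyde and 1 ug/ml Hoechst. Dosing was a single drug or a fixed anchor-drug dose plus five library-drug doses (not always all listed) in √10 steps, and values are medians of duplicate plates imaged at 4×.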

Imatinib + Pictilisib = compound: Cc1ccc(NC(=O)c2ccc(CN3CCN(C)CC3)cc2)cc1Nc1nccc(-c2cccnc2)n1 [Imatinib] + CS(=O)(=O)N1CCN(Cc2cc3nc(-c4cccc5[nH]ncc45)nc(N4CCOCC4)c3s2)CC1 [Pictilisib] (partner 1 µM)
Method in brief: as §1

Imatinib + Tozasertib = compound: Cc1ccc(NC(=O)c2ccc(CN3CCN(C)CC3)cc2)cc1Nc1nccc(-c2cccnc2)n1 [Imatinib] + Cc1cc(Nc2cc(N3CCN(C)CC3)nc(Sc3ccc(NC(=O)C4CC4)cc3)n2)n[nH]1 [Tozasertib] (partner 0.1 µM)
Method in brief: as §1

Imatinib + Pemetrexed = compound: Cc1ccc(NC(=O)c2ccc(CN3CCN(C)CC3)cc2)cc1Nc1nccc(-c2cccnc2)n1 [Imatinib] + Nc1nc2[nH]cc(CCc3ccc(C(=O)N[C@@H](CCC(=O)O)C(=O)O)cc3)c2c(=O)[nH]1 [Pemetrexed] (partner 0.2 µM)
Method in brief: as §1

Row | Cell Line | relative viability (Imatinib + Bortezomib; first compound 0.06325 µM) | relative viability (Imatinib + Bortezomib; first compound 0.2 µM) | relative viability (Imatinib + Bortezomib; first compound 0.6325 µM) | relative viability (Imatinib + Pictilisib; first compound 0.02 µM) | relative viability (Imatinib + Pictilisib; first compound 0.06325 µM) | relative viability (Imatinib + Pictilisib; first compound 0.2 µM) | relative viability (Imatinib + Pictilisib; first compound 0.6325 µM) | relative viability (Imatinib + Pictilisib; first compound 2 µM) | relative viability (Imatinib + Tozasertib; first compound 0.02 µM) | relative viability (Imatinib + Tozasertib; first compound 0.06325 µM) | relative viability (Imatinib + Tozasertib; first compound 0.2 µM) | relative viability (Imatinib + Tozasertib; first compound 0.6325 µM) | relative viability (Imatinib + Tozasertib; first compound 2 µM) | relative viability (Imatinib + Pemetrexed; first compound 0.02 µM) | relative viability (Imatinib + Pemetrexed; first compound 0.06325 µM) | relative viability (Imatinib + Pemetrexed; first compound 0.2 µM) | relative viability (Imatinib + Pemetrexed; first compound 0.6325 µM) | relative viability (Imatinib + Pemetrexed; first compound 2 µM) | relative viability (Imatinib + Bortezomib; first compound 0.02 µM) | relative viability (Imatinib + Bortezomib; first compound 2 µM)
1 | HCC-827 | 1 | 1.04 | 1.02 | 0.817 | 0.942 | 1.1 | 0.926 | 0.952 | 0.404 | 0.486 | 0.407 | 0.407 | 0.421 | 0.283 | 0.285 | 0.249 | 0.267 | 0.255 |  | 
2 | HOP-62 |  | 1.19 | 0.732 | 0.775 |  | 0.822 | 0.569 | 0.958 | 0.431 |  | 0.356 | 0.353 | 0.326 | 0.302 |  | 0.356 | 0.29 | 0.317 | 1.14 | 0.598
3 | IA-LM | 1.03 | 0.937 | 0.744 | 0.431 | 0.497 | 0.317 | 0.586 | 0.373 |  |  |  |  |  |  |  |  |  |  | 0.767 | 0.784
4 | LC-2-ad | 0.658 | 1.18 | 0.985 | 0.379 | 0.492 | 0.573 | 0.429 | 0.43 | 0.439 | 0.439 | 0.514 | 0.2 | 0.419 | 0.265 |  | 0.298 | 0.251 | 0.27 | 1.16 | 0.929
5 | LCLC-97TM1 |  |  | 0.741 |  |  | 0.18 | 0.225 | 0.164 | 0.236 |  | 0.14 | 0.2 | 0.214 | 0.183 |  | 0.197 | 0.165 | 0.184 | 0.552 | 0.524
6 | LCLC-103H |  |  | 1.13 | 0.67 |  | 0.692 | 0.578 |  | 0.463 | 0.473 | 0.514 | 0.481 | 0.398 | 0.458 | 0.445 | 0.472 | 0.464 | 0.504 | 1.08 | 
7 | LK-2 |  |  |  | 0.639 |  | 0.581 | 0.488 | 0.572 | 0.173 | 0.181 | 0.159 | 0.139 | 0.176 | 0.272 | 0.29 | 0.296 |  | 0.272 |  | 
8 | LOU-NH91 | 0.517 | 0.51 | 0.423 | 0.51 | 0.546 | 0.49 | 0.537 | 0.498 | 0.636 | 0.833 | 0.761 | 0.596 | 0.667 | 0.361 | 0.385 | 0.381 | 0.405 | 0.395 | 0.557 | 0.479
9 | LU99A | 1.19 | 1.08 | 1.23 | 0.353 | 0.333 | 0.3 | 0.354 | 0.335 | 0.283 | 0.31 | 0.219 | 0.261 | 0.238 | 0.161 | 0.206 | 0.157 | 0.232 | 0.313 | 1.34 | 1.03
10 | LXF-289 |  | 1.13 | 0.974 | 0.929 | 0.711 | 0.934 | 0.747 | 0.804 | 0.22 | 0.162 | 0.21 | 0.232 | 0.187 | 0.91 |  | 0.88 | 0.893 | 0.923 | 1.06 | 0.955
11 | NCI-H358 |  |  |  | 0.292 |  | 0.326 | 0.275 | 0.347 | 0.103 | 0.121 | 0.102 | 0.0961 | 0.0939 | 0.167 | 0.169 | 0.189 | 0.171 | 0.178 |  | 
12 | NCI-H727 | 0.812 |  | 0.868 | 0.356 | 0.442 | 0.355 | 0.524 | 0.383 | 0.59 | 0.59 | 0.518 | 0.543 | 0.509 |  |  |  |  |  | 0.93 | 0.745
13 | NCI-H1299 | 1.01 | 0.98 | 1.03 | 0.868 | 1.07 | 0.833 | 0.954 | 0.776 |  |  |  |  |  |  |  |  |  |  | 1.05 | 1.03
14 | NCI-H1395 |  |  |  | 0.622 |  | 0.6 | 0.651 | 0.605 | 0.679 | 0.773 | 0.76 | 0.663 | 0.7 | 0.807 |  | 0.955 | 1.04 | 0.784 |  | 
15 | NCI-H1563 | 0.789 | 0.889 | 0.809 | 0.662 | 0.537 | 0.634 | 0.605 | 0.589 |  |  |  |  |  | 0.861 | 0.678 | 0.787 | 0.772 | 0.631 | 0.885 | 0.86
16 | NCI-H1648 |  |  |  |  |  |  |  |  | 0.542 | 0.349 | 0.426 |  | 0.443 | 0.722 | 0.642 | 0.721 | 0.543 | 0.673 |  | 
17 | NCI-H1703 | 0.29 | 0.138 | 0.214 |  | 0.268 | 0.219 | 0.256 | 0.235 |  |  |  |  |  |  |  |  |  |  | 0.289 | 0.186
18 | NCI-H1792 | 0.951 | 0.675 | 0.861 | 0.264 | 0.198 | 0.214 | 0.237 | 0.277 |  |  |  |  |  | 1.06 | 0.931 | 0.848 |  | 0.748 | 1.21 | 0.935
19 | NCI-H1793 |  |  |  | 0.272 |  | 0.332 | 0.412 | 0.413 | 0.309 |  | 0.328 | 0.223 | 0.28 | 0.945 |  | 1 | 1.01 | 0.792 |  | 
20 | NCI-H1944 |  |  |  | 0.353 |  | 0.368 | 0.324 | 0.335 | 0.259 | 0.401 | 0.253 | 0.236 | 0.262 | 0.881 | 0.642 | 0.695 | 0.656 | 0.561 |  | 
21 | NCI-H2170 |  |  |  | 0.292 | 0.334 | 0.283 | 0.254 | 0.26 | 0.872 | 0.872 | 0.752 | 0.585 | 0.712 | 0.343 | 0.277 | 0.267 | 0.256 | 0.274 |  | 
22 | SK-MES-1 |  |  |  | 0.366 | 0.323 | 0.39 | 0.357 | 0.379 | 0.994 | 1.02 | 1.13 | 0.906 | 0.821 |  | 1.02 | 1.04 | 0.889 | 0.857 |  | 
23 | SW 900 |  |  |  |  |  |  |  |  | 0.51 | 0.404 | 0.712 | 0.469 | 0.348 | 0.465 | 0.393 | 0.418 | 0.47 | 0.425 |  | 
